Reference: patent publication US12495798B2, “Nicotinamide compound and herbicidal composition comprising compound” (KOREA RESEARCH INSTITUTE OF CHEMICAL TECHNOLOGY, priority 2019, dated 2025)

Assays:
Type in all cases: in vivo
cotton = assay: Phytotoxicity test for upland field crops (foliar treatment test); set-up: key: 0 (no harm); 9 (complete withered)
Protocol: (§1) Experimental Example 3: Phytotoxicity Test for Upland Field Crops (Foliar Treatment Test)
(§2) Foliar treatment was performed for grown crops and weeds in a square plastic pot having a surface area of 50 cm^2 filled with horticultural soil. As a fertilizer per pot, 0.5 g of horticultural mixed fertilizer (N:P:K=17:21:17) was treated by mixing in the upper soil. Five kinds of crops such as rice, wheat, corn, soybean, and cotton were sown in each pot, and after growing for a certain period in greenhouse conditions (average temperature 30±5° C., light/dark=14/10 hours), test compound solutions were made by diluting with the diluent (33% acetone, 0.1% Tween-20) so that the final treatment amount of the test compounds was 19˜300 g a.i./ha. The prepared test compound solutions were treated using a spray booth (SB6-016) at a treatment amount of 100 ml per 1 m^2 of treatment area. The treated plants were managed under the same greenhouse conditions as above, and external symptoms and phytotoxicity were investigated 7 and 14 days after treatment (after 21 days if necessary). In the evaluation of the phytotoxicity for the crop, the grade of 0 (no harm) to 9 (complete withered) was used. The results of Table 9 were obtained by evaluating crop phytotoxicity value to the untreated control.

soybean = assay: as above; set-up: key: 0 (no harm); 9 (complete withered)
Protocol: as §1, §2

corn = assay: as above; set-up: key: 0 (no harm); 9 (complete withered)
Protocol: as §1, §2

wheat = assay: as above; set-up: key: 0 (no harm); 9 (complete withered)
Protocol: as §1, §2

rice = assay: as above; set-up: key: 0 (no harm); 9 (complete withered)
Protocol: as §1, §2

velvetleaf = assay: Herbicidal activity test against upland field weeds (foliar treatment test); set-up: key to Foliar treatment herbicidal activity, velvet leaf: 0 (no control); 100 (complete control); details: 50 g ai/ha; for pest or weed control at 50 g/ha: Abutilon theophrasti, scale 0-100, read-out: Foliar treatment herbicidal activity, velvet leaf; for Foliar treatment herbicidal activity, velvet leaf: scale 0-100
Protocol: (§3) Experimental Example 1: Herbicidal Activity Test Against Upland Field Weeds (Foliar Treatment Test) Foliar treatment was performed as follows: After filling a square plastic pot having a surface area of 350 cm^2 with horticultural soil, seeds (10˜15 grains) or rootstocks (2 pieces) of 5 kinds of grassy weeds of sorghum, barnyard grass, quack grass, crabgrass, fall panicum, and 5 kinds of broadleaf weeds of black nightshade, indian jointvetch, velvetleaf, cocklebur, bindweed, which had been stored in a low temperature (6° C.), were sown. After growing for a certain period in greenhouse conditions (average temperature 30±5° C., light/dark=14/10 hours), test compound solutions were made by diluting with a preparation solution (including 50% acetone, 0.1% Tween-20) so that the final treatment amount of the test compounds was 50 or 75 g a.i./ha. The prepared test compound solution was used for treating foliage by hand-spraying 14 mL per pot in a fume hood. After the treatment, it was managed under the same greenhouse conditions as above, and after 14 days (after 21 days if necessary), the external symptoms and efficacy were investigated according to the scale of 0 (no control) to 100 (complete control). The results of Table 7 were obtained by evaluating weed control value to the untreated control by conducting visual assessment.

black nightshade = assay: as above; details: Solanum nigrum, 50 g ai/ha, scale 0-100
Protocol: as §3

cocklebur = assay: as above; set-up: key to Foliar treatment herbicidal activity, Cocklebur: 0 (no control); 100 (complete control); details: 50 g ai/ha, scale 0-100; for pest or weed control at 50 g/ha: Xanthium strumarium
Protocol: as §3

quack grass = assay: as above; set-up: key to Foliar treatment herbicidal activity, quack grass: 0 (no control); 100 (complete control); details: 50 g ai/ha, scale 0-100
Protocol: as §3

indian jointvetch = assay: as above; set-up: key to Foliar treatment herbicidal activity, Indian jointvetch: 0 (no control); 100 (complete control); details: 50 g ai/ha, scale 0-100
Protocol: as §3

bindweed = assay: as above; set-up: key to Foliar treatment herbicidal activity, Bindweed: 0 (no control); 100 (complete control); details: 50 g ai/ha, scale 0-100
Protocol: as §3

fall panicum = assay: as above; set-up: key to Foliar treatment herbicidal activity, Fall panicum: 0 (no control); 100 (complete control); details: 50 g ai/ha, scale 0-100
Protocol: as §3

barnyard grass = assay: as above; set-up: key to Foliar treatment herbicidal activity, barnyard grass: 0 (no control); 100 (complete control); details: 50 g ai/ha, scale 0-100
Protocol: as §3

sorghum = assay: as above; set-up: key to Foliar treatment herbicidal activity, Sorghum: 0 (no control); 100 (complete control); details: 50 g ai/ha, scale 0-100
Protocol: as §3

crabgrass = assay: as above; set-up: key to Foliar treatment herbicidal activity, Crabgrass: 0 (no control); 100 (complete control); details: 50 g ai/ha, scale 0-100
Protocol: as §3

[1] = 50 g ai/ha, Cotton (7 days after treatment)
[2] = 50 g ai/ha, Cotton (14 days after treatment)
[3] = 100 g ai/ha, Cotton (7 days after treatment)
[4] = 100 g ai/ha, Cotton (14 days after treatment)
[5] = 50 g ai/ha, Soybean (7 days after treatment)
[6] = 50 g ai/ha, Soybean (14 days after treatment)
[7] = 100 g ai/ha, Soybean (7 days after treatment)
[8] = 100 g ai/ha, Soybean (14 days after treatment)
[9] = 50 g ai/ha, Corn (7 days after treatment)
[10] = 50 g ai/ha, Corn (14 days after treatment)
[11] = 100 g ai/ha, Corn (7 days after treatment)
[12] = 100 g ai/ha, Corn (14 days after treatment)
[13] = 50 g ai/ha, Wheat (7 days after treatment)
[14] = 50 g ai/ha, Wheat (14 days after treatment)
[15] = 100 g ai/ha, Wheat (7 days after treatment)
[16] = 100 g ai/ha, Wheat (14 days after treatment)
[17] = 50 g ai/ha, Rice (7 days after treatment)
[18] = 50 g ai/ha, Rice (14 days after treatment)
[19] = 100 g ai/ha, Rice (7 days after treatment)
[20] = 100 g ai/ha, Rice (14 days after treatment)

Structure (SMILES) | pest or weed control at 50 g/ha (velvetleaf) [%] | pest or weed control at 50 g/ha (black nightshade) [%] | pest or weed control at 50 g/ha (cocklebur) [%] | Foliar treatment herbicidal activity, quack grass (quack grass) | pest or weed control at 50 g/ha (indian jointvetch) [%] | pest or weed control at 50 g/ha (bindweed) [%] | Foliar treatment herbicidal activity, Fall panicum (fall panicum) | Foliar treatment herbicidal activity, barnyard grass (barnyard grass) | Foliar treatment herbicidal activity, Sorghum (sorghum) | Foliar treatment herbicidal activity, Crabgrass (crabgrass) | Foliar treatment herbicidal activity, velvet leaf (velvetleaf) | Foliar treatment herbicidal activity, Indian jointvetch (indian jointvetch) | Foliar treatment herbicidal activity, Bindweed (bindweed) | also measured
Cn1nnnc1CSc1nc(C(F)(F)F)ccc1C(=S)Nc1nnnn1C [1-44] |  |  |  |  |  |  |  |  |  |  |  |  |  | Foliar treatment phytotoxicity, Cotton (cotton; [1]): 4; Foliar treatment phytotoxicity, Cotton (cotton; [2]): 9; Foliar treatment phytotoxicity, Cotton (cotton; [3]): 5; Foliar treatment phytotoxicity, Cotton (cotton; [4]): 9; Foliar treatment phytotoxicity, Soybean (soybean; [5]): 6; Foliar treatment phytotoxicity, Soybean (soybean; [6]): 7; Foliar treatment phytotoxicity, Soybean (soybean; [7]): 6; Foliar treatment phytotoxicity, Soybean (soybean; [8]): 7; Foliar treatment phytotoxicity, Corn (corn; [9]): 5; Foliar treatment phytotoxicity, Corn (corn; [10]): 3; Foliar treatment phytotoxicity, Corn (corn; [11]): 5; Foliar treatment phytotoxicity, Corn (corn; [12]): 3; Foliar treatment phytotoxicity, Wheat (wheat; [13]): 0; Foliar treatment phytotoxicity, Wheat (wheat; [14]): 0; Foliar treatment phytotoxicity, Wheat (wheat; [15]): 0; Foliar treatment phytotoxicity, Wheat (wheat; [16]): 0; Foliar treatment phytotoxicity, Rice (rice; [17]): 6; Foliar treatment phytotoxicity, Rice (rice; [18]): 9; Foliar treatment phytotoxicity, Rice (rice; [19]): 6; Foliar treatment phytotoxicity, Rice (rice; [20]): 9
Cn1nnnc1COc1nc(C(F)(F)F)ccc1C(=O)Nc1nnnn1C(F)F [Compound No. 1-4, N-(1-(difluoromethyl)-1H-tetrazol-5-yl)-2-((1-methyl-1H-tetrazol-5-yl)methoxy)-6-(trifluoromethyl)nicotinamide] | 20 | 80 | 60 | 0 | 20 | 20 | 0 | 0 | 0 | 0 |  |  |  | 
Cn1nnnc1COc1nc(C(F)(F)F)cc(Cl)c1C(=O)Nc1nnnn1C [Compound No. 1-13, 4-chloro-N-(1-methyl-1H-tetrazol-5-yl)-2-((1-methyl-1H-tetrazol-5-yl)methoxy)-6-(trifluoromethyl)nicotinamide] |  | 60 | 20 | 0 |  |  | 0 | 0 | 0 | 0 | 0 | 0 | 0 | 
Cn1nnnc1COc1nc(Cl)ccc1C(=O)Nc1nnnn1C [Compound No. 1-20, 6-chloro-N-(1-methyl-1H-tetrazol-5-yl)-2-((1-methyl-1H-tetrazol-5-yl)methoxy)nicotinamide] |  | 50 | 20 | 0 |  |  | 0 | 0 | 0 | 0 | 0 | 0 | 0 | 
Cn1nnnc1NC(=O)c1ccc(C(F)(F)F)nc1COCc1nnnn1C(F)F [Compound No. 1-85, 2-(((1-(difluoromethyl)-1H-tetrazol-5-yl)methoxy)methyl)-N-(1-methyl-1H-tetrazol-5-yl)-6-(trifluoromethyl)nicotinamide] | 20 |  | 90 | 0 | 40 | 40 |  | 0 | 0 | 0 |  |  |  | pest or weed control at 50 g/ha (fall panicum; Panicum dichotomiflorum): 40%
Cn1nnnc1NC(=O)c1ccc(C(F)(F)F)nc1COc1nnnn1C [Compound No. 1-115, N-(1-methyl-1H-tetrazol-5-yl)-2-(((1-methyl-1H-tetrazol-5-yl)oxy)methyl)-6-(trifluoromethyl)nicotinamide] | 40 | 95 | 80 | 0 | 40 | 80 | 0 |  | 0 | 0 |  |  |  | pest or weed control at 50 g/ha (barnyard grass; Echinochloa crus-galli): 30%
Cn1nnc(CNc2nc(C(F)(F)F)ccc2C(=O)Nc2nnnn2C)n1 [Compound No. 2-32, N-(1-methyl-1H-tetrazol-5-yl)-2-(((2-methyl-2H-tetrazol-5-yl)methyl)amino)-6-(trifluoromethyl)nicotinamide] |  | 40 |  | 0 |  |  | 0 | 0 | 0 | 0 | 0 | 0 | 0 | Foliar treatment herbicidal activity, Cocklebur (cocklebur): 0
COC(=O)OC(C)N(C(=O)c1ccc(C(F)(F)F)nc1COCc1ncn(C)n1)c1nnnn1C (stereo not drawn) [Compound No. 4-1, methyl(1-(2-(((1-methyl-1H-1,2,4-triazol-3-yl)methoxy)methyl)-N-(1-methyl-1H-tetrazol-5-yl)-6-(trifluoromethyl)nicotinamido)ethyl)carbonate] |  |  |  |  |  |  |  |  |  |  |  |  |  | Foliar treatment phytotoxicity, Cotton (cotton; [1]): 3; Foliar treatment phytotoxicity, Cotton (cotton; [2]): 8; Foliar treatment phytotoxicity, Cotton (cotton; [3]): 3; Foliar treatment phytotoxicity, Cotton (cotton; [4]): 8; Foliar treatment phytotoxicity, Soybean (soybean; [5]): 4; Foliar treatment phytotoxicity, Soybean (soybean; [6]): 6; Foliar treatment phytotoxicity, Soybean (soybean; [7]): 4; Foliar treatment phytotoxicity, Soybean (soybean; [8]): 8; Foliar treatment phytotoxicity, Corn (corn; [9]): 0; Foliar treatment phytotoxicity, Corn (corn; [10]): 0; Foliar treatment phytotoxicity, Corn (corn; [11]): 0; Foliar treatment phytotoxicity, Corn (corn; [12]): 0; Foliar treatment phytotoxicity, Wheat (wheat; [13]): 0; Foliar treatment phytotoxicity, Wheat (wheat; [14]): 0; Foliar treatment phytotoxicity, Wheat (wheat; [15]): 0; Foliar treatment phytotoxicity, Wheat (wheat; [16]): 0; Foliar treatment phytotoxicity, Rice (rice; [17]): 2; Foliar treatment phytotoxicity, Rice (rice; [18]): 6; Foliar treatment phytotoxicity, Rice (rice; [19]): 3; Foliar treatment phytotoxicity, Rice (rice; [20]): 7
